Key:
Assay type in all cases: cell-based, human
[1] = test system: AAV transgene expression (firefly luciferase); experiment: AAV regulation with first generation CEM, dual luciferase assay, HCT116 Renilla; details: FIG. 12, 50, 200, 500, 1000 nM
Description: It was investigated whether rAAV transgene expression can be epigenetically controlled. Rapid screening of CEM technology can be performed with dual liucierase assays. (FIG. 10). Briefly, a cell line can be stably transduced with Ef1a-Renilla, enabling normalization to cell number. The cells are then either infected with AAV or tranfected with plasmid and dosed with a chemical epigenetic modifier. Luminescence can then be measured with the Dual Lucieferase Reporter, commercially available from Promega. This approach is described in more detail in the methods section of the example. Gene activation can be described as normalized luciferase or fold change. A measure of total gene expression can be calculated by
Preliminary regulation of AAV with first generation CEMs is depicted in FIG. 11A. The prototype system is autogenous, saving casssette space. (FIG. 11B). […] Preliminary regulation of AAV with first generation CEMs in HEK293T Renilla cells using the cassette in FIG. 11B results are shown in FIG. 13, with multiplicity of infection (MOI)=number of viral genomes/cell.

HEK293T cells = experiment: alamarBlue cell viability assay, HEK293T
Experimental: FIGS. 8A-8B show alamarBlue cell viability assays. HEK293T or HCT116 cells were plated in 96-well plates 24 hrs before chemical treatment of 0.001, 0.01, 0.1, 1, 10, 50, and 100 μM CEM207 was added. Another group of cells were treated with all concentrations of CEM207 mentioned above along with 200 nM CEM87 in all samples. After 4 days of chemical exposure, cell growth was measured by fluorescence. […] HCT116 cells were stably infected with dCas9 and MS2-FKBP*x2 constructs and transfected with CXCR4 gRNA. After 24 hrs of 25 nM CEM207 treatment, ChIP-qPCR was performed at different base pair distances from the transcription start site of CXCR4 gene. […] Error bars represent the standard deviation.
AlamarBlue cell viability assay. HEK293T or HCT116 cells were placed in black 96-well plates with clear bottom. 24 hrs later, media was exchanged to include 0.001, 0.01, 0.1, 1, 10, 50, 100 μM concentrations of CEM207, or all CEM207 concentrations above along with 200 nM CEM87. After 4 days of chemical exposure, alamarBlue Cell Viability Reagent (Invitrogen, DAL1025) was added to each well. Cells were incubated at 37° C. for 4 hrs and fluorescence was read using the TECAN Infinite F200 Fluorescence Microplate Reader. IC50 values were calculated using GraphPad Prism 9.

[2] = test system: firefly luciferase expression cassette; experiment: Transfection evaluating multiple promoters, SLF* CEM system, dual luciferase assay, 293T Renilla; details: FIGS. 15A and 15B; ybTATA, miniCMV, Het, Ef1a core, hPGK; 0, 5, 15 or 50 nM CEM207
Experimental: Next, it was determined whether SLF*CEMs can regulate AAV. The cassette shown in FIG. 14A was inserted into rAAV2 and infected into HEK293T Renilla. […] Next, it was explored whether the cassette was truly modular by varying the promoter while retaining SLF* CEM successful activation of rAAV2.
Transfection Evaluating Multiple Promoters—SLF* CEM System with 0, 5, 15 or 50 nM CEM207:
Day 1 (0 h): 293T cells with stably infected Renilla under the control of full length Ef1a promoter were plated in a 96 well plate; 10 k cells/well, 100 μL media/well. All conditions were plated in biological triplicate.
Day 2 (24 h): A PEI transfection mixture of each construct (Jet, ybTATA, miniCMV, Ef1a core, and hPGK) was prepared and added to each well: 0.1 μg of DNA, 0.3 μL of PEI, and 4 μL of Opti-MEM per well, with PEI added last. Reagents were mixed well and incubated for 15 minutes. 4 μL of the appropriate transfection mixture was added to each well. […]
Day 5 (96 h): […] Data was obtained using the Promega Dula Luciferase Reporter (DLR) assay: first, the cells were washed with 100 μL of PBS/well dropwise followed by 20 μL of 1× passive lysis buffer (PLB) added to each well. The cells were incubated for 15 minutes in PLB and the assay ran on pheraSTAR microplate reader with 25 μL of each DLR reagent, gain=2000.

CXCR4 protein = experiment: CXCR4 cell membrane protein expression in HCT116 (APC anti-CXCR4 antibody, flow cytometry); details: for fold change, CXCR4 protein (CXCR4 gRNA vs NT gRNA): FIG. 3E, 7B-7D
Experimental: In addition, the change in CXCR4 protein expression was evaluated following CEM207 treatment at three different concentrations. CEM207 was chosen over CEM203 because of the lower concentration needed to reach a similar peak CXCR4 mRNA activation level. An APC anti-CXCR4 antibody was used to assess cell membrane CXCR4 protein expression via flow cytometry in dCas9 and MS2-FKBP*x2 stably infected HCT116 cells (FIG. 3E and FIGS. 7B-7D). CXCR4 protein levels were determined at 24, 48, and 72 hrs time points for each of the different concentrations of CEM207. […] Based on this protein expression data, it was concluded that the SLF*-CEMa technology can achieve effective gene-specific, dose-dependent activation at the mRNA and protein level.

COc1ccc2c(c1)C(c1ccc(Cl)cc1)=N[C@@H](CC(=O)NCc1cn(CCOCCOCCOCCNC(=O)CCSCCC[C@@H]3/C=C(\C)C[C@H](C)C[C@H](OC)[C@H]4O[C@@](O)(C(=O)C(=O)N5CCCC[C@H]5C(=O)O[C@H](/C(C)=C/[C@@H]5CC[C@@H](O)[C@H](OC)C5)[C@H](C)[C@@H](O)CC3=O)[C@H](C)C[C@@H]4OC)nn1)c1nnc(C)n1-2 [CEM87, reference compound]
luminescence, fold change compared to no treatment [1]: dose dependent increase in luminscence

CC[C@H](C(=O)N1CCCC[C@H]1C(=O)O[C@H](CCc1ccc(OC)c(OC)c1)c1cccc(OCC(=O)NCCOCCOCCNC(=O)C[C@@H]2N=C(c3ccc(Cl)cc3)c3c(sc(C)c3C)-n3c(C)nnc32)c1)c1cc(OC)c(OC)c(OC)c1 [CEM207, (R)-1-(3-((14-((S)-4-(4-Chlorophenyl)-2,3,9-trimethyl-6H-thieno[3,2-f][1,2,4]triazolo[4,3-a][1,4]diazepin-6-yl)-2,13-dioxo-6,9-dioxa-3,12-diazatetradecyl)oxy)phenyl)-3-(3,4-dimethoxyphenyl) propyl(S)-1-((S)-2-(3,4,5-trimethoxyphenyl)butanoyl) piperidine-2-carboxylate]
IC50 (HEK293T cells; CEM207 treatment alone, 4 days of exposure): 106 nM | IC50 (HEK293T cells; treated simultaneously with 200 nM CEM87, 4 days of exposure): 78.6 nM | activation with varied minimal promoters [2]: tolerates a variety of minimal promoters | time after CEM treatment of highest CXCR4 protein expression (CXCR4 protein; 24, 48, 72 hrs time points): 48 h | fold change, CXCR4 protein (CXCR4 gRNA vs NT gRNA) (CXCR4 protein; 24 h time point, 5 nM): 2.4 fold | fold change, CXCR4 protein (CXCR4 gRNA vs NT gRNA) (CXCR4 protein; 24 h time point, 25 nM): 4.6 fold | fold change, CXCR4 protein (CXCR4 gRNA vs NT gRNA) (CXCR4 protein; 24 h time point, 50 nM): 4.3 fold | fold change, CXCR4 protein (CXCR4 gRNA vs NT gRNA) (CXCR4 protein; 48 h time point, 5 nM): 2.4 fold | fold change, CXCR4 protein (CXCR4 gRNA vs NT gRNA) (CXCR4 protein; 48 h time point, 25 nM): 4.9 fold | fold change, CXCR4 protein (CXCR4 gRNA vs NT gRNA) (CXCR4 protein; 48 h time point, 50 nM): 5.8 fold | fold change, CXCR4 protein (CXCR4 gRNA vs NT gRNA) (CXCR4 protein; 72 h time point, 5 nM): 1.7 fold | fold change, CXCR4 protein (CXCR4 gRNA vs NT gRNA) (CXCR4 protein; 72 h time point, 25 nM): 4.2 fold | fold change, CXCR4 protein (CXCR4 gRNA vs NT gRNA) (CXCR4 protein; 72 h time point, 50 nM): 3.8 fold | concentration of maximum CXCR4 cell membrane protein expression (CXCR4 protein; remained the same at 50 nM): 25 nM
